Results as given in patent publication US6461997B1, “Triazole sulfones having herbicidal activity” (Monsanto Technology LLC, priority 1999, dated 2002).

Legend:
[1] = tested on: LAMPU (purple deadnettle); assay: Pre-emergence herbicidal activity, cool season; assay type: in vivo, Lamium purpureum; details: lowest tested rate with 80% or greater inhibition; rates 300, 100, 30, 10 g/ha; about 14 days
Method in brief: (§1)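 GR80 values derive from percent inhibition relative to untreated plants, read roughly 14 days after sowing and pre-emergence soil-surface treatment (compound in 50:50 acetone/water; rates typically 10, 30, 100, 300 g/ha). Warm-season weeds grew at 30/21° C day/night, cool-season ones at 18/13° C; an asterisk marks activity without reaching 80% at the highest rate.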

SOLNI (black nightshade) [2] = assay: Pre-plant incorporated (PPI) herbicidal activity, warm season; assay type: in vivo, Solanum nigrum; details: for inhibition at 10 g/ha / inhibition at 30 g/ha / inhibition at 100 g/ha / inhibition at 300 g/ha / inhibition at 900 g/ha: Solanum nigrum, PPI application, read-out: Percent inhibition SOLNI; for PPI activity (GR80) SOLNI: pre-plant incorporated, GR80 = lowest tested rate with 80% or greater inhibition, approx. 14 days after treating, 30/21° C.
Procedure: (§2) In another set of tests, the pre-plant incorporated (PPI) activity of compounds of this invention was evaluated on the same species as for the pre-emergence tests described above. In the PPI tests the following procedure, designed to simulate PPI application, was used.
(§3) A pre-prepared topsoil mixture (described above) was placed in a pot and compacted to a depth of 1.0 to 1.25 cm from the top of the pot. Seeds of each of several monocotyledonous and dicotyledonous annual plant species were placed on top of the soil. A sufficient quantity of soil to cover the seeds and level fill the pot was weighed into an open container. A known amount of the test compound was dissolved or suspended in an organic solvent and applied by spraying to this cover soil. The cover soil was thoroughly mixed to distribute the test compound throughout the cover soil, and was then applied as a cover layer over the seeds. Untreated soil was used as a cover layer for control pots. After treatment the plants were placed in a greenhouse where they received 0.64 cm of overhead irrigation. All subsequent watering consisted of a light overhead mist and/or subirrigation as needed for germination and growth. Tables 9 and 10 below relate to warm season plant species which were placed after pre-emergence treatment in a greenhouse with a 30/21° C. day/night temperature regime. Tables 11 and 12 below relates to cool season plant species placed after pre-emergence treatment in a greenhouse or growth chamber with an 18/13° C. day/night temperature regime. Only the compounds of Examples 1, 6, 8, 11, 13 and 15-20 were included in PPI tests.
(§4) Approximately 14 days after planting and treating, the plants were observed and herbicidal efficacy recorded as percent inhibition by comparison with untreated plants.

ABUTH (velvetleaf) = assay: as above; assay type: in vivo, Abutilon theophrasti; details: for inhibition at 10 g/ha / inhibition at 30 g/ha / inhibition at 100 g/ha / inhibition at 300 g/ha / inhibition at 900 g/ha: Abutilon theophrasti, PPI application, read-out: Percent inhibition ABUTH; for PPI activity (GR80) ABUTH: pre-plant incorporated, GR80 = lowest tested rate with 80% or greater inhibition, approx. 14 days after treating, 30/21° C.
Procedure: as §2, §3, §4

SETFA (giant foxtail) [3] = assay: Pre-emergence herbicidal activity, warm season; assay type: in vivo, Setaria faberi; details: for Pre-emergence activity (GR80) SETFA: GR80 = lowest tested rate (300, 100, 30, 10 g/ha) with 80% or greater inhibition, approx. 14 days after treating, 30/21° C.
Method in brief: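 Activity is expressed as the rate giving 80% inhibition, with 300, 100, 30 and 10 g/ha typically tested. An asterisk marks activity short of 80% at the top rate. Warm-season grasses were held at 30/21 °C; cool-season blackgrass and wild buckwheat at 18/13 °C; scoring at about 14 days.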

oilseed rape (BRSNS) = assay: Selectivity test, PPI, cool season crop; assay type: in vivo, Brassica napus; details: Brassica napus, PPI application, read-out: Percent inhibition BRSNS
Procedure: as §3, §4
Additional pre-emergence and PPI tests were conducted by the procedures described above, on warm and cool season weed species in the presence of crop species, to assess herbicidal selectivity. Crop species included in warm season tests were corn (Zea mays, ZEAMX), rice (Oryza sativa, ORYSA) and soybean (Glycine max, GLYMX). Crop species included in cool season tests were wheat (Triticum aestivum, TRZAW), barley (Hordeunm vulgare, HORVX) and oilseed rape (Brassica napus, BRSNS).
Tables 15 and 16 relate to pre-emergence and PPI tests respectively on warm season species. Table 17 relates to pre-emergence tests on cool season species.

BROTE (downy brome) = assay: Pre-plant incorporated (PPI) herbicidal activity, cool season; assay type: in vivo, Bromus tectorum; details: for PPI activity GR80, BROTE: pre-plant incorporated, lowest tested rate with 80% or greater inhibition, about 14 days
Procedure: as §2, §3, §4

[4] = tested on: GALAP (catchweed bedstraw); assay: Pre-emergence herbicidal activity, cool season; assay type: in vivo, Galium aparine; details: lowest tested rate with 80% or greater inhibition; rates 300, 100, 30, 10 g/ha; about 14 days
Method in brief: as §1

SETFA (giant foxtail) [5] = assay: Pre-plant incorporated (PPI) herbicidal activity, warm season; assay type: in vivo, Setaria faberi; details: for inhibition at 10 g/ha / inhibition at 30 g/ha / inhibition at 100 g/ha / inhibition at 300 g/ha / inhibition at 900 g/ha: Setaria faberi, PPI application, read-out: Percent inhibition SETFA; for PPI activity GR80, SETFA: pre-plant incorporated, lowest tested rate with 80% or greater inhibition, about 14 days
Procedure: as §2, §3, §4

[6] = tested on: CHEAL (common lambsquarters); assay: Pre-emergence herbicidal activity, warm season; assay type: in vivo, Chenopodium album; details: GR80 = lowest tested rate (300, 100, 30, 10 g/ha) with 80% or greater inhibition; approx. 14 days after treating; 30/21° C.
Method in brief: as §1

SINAR (wild mustard) = assay: Pre-plant incorporated (PPI) herbicidal activity, cool season; assay type: in vivo, Sinapis arvensis; details: for PPI activity GR80, SINAR: pre-plant incorporated, lowest tested rate with 80% or greater inhibition, about 14 days
Procedure: as §2, §3, §4

SOLNI (black nightshade) [7] = assay: Pre-emergence herbicidal activity, warm season; assay type: in vivo, Solanum nigrum; details: for Pre-emergence activity (GR80) SOLNI: GR80 = lowest tested rate (300, 100, 30, 10 g/ha) with 80% or greater inhibition, approx. 14 days after treating, 30/21° C.
Method in brief: as §1

[8] = Bromus tectorum, weed, PPI application, read-out: Percent inhibition BROTE
[9] = Brassica, weed, PPI application, read-out: Percent inhibition SINAR

C=C(C)CC(F)(F)S(=O)(=O)c1ncn(C(=O)N(CC)CC)n1 [Example 18]
Pre-emergence activity GR80, LAMPU [1]: 300 g/ha | inhibition at 10 g/ha (SOLNI (black nightshade) [2]): 0% | inhibition at 30 g/ha (SOLNI (black nightshade) [2]): 0% | inhibition at 100 g/ha (SOLNI (black nightshade) [2]): 20% | inhibition at 300 g/ha (SOLNI (black nightshade) [2]): 99% | inhibition at 900 g/ha (SOLNI (black nightshade) [2]): 90% | PPI activity (GR80) SOLNI (SOLNI (black nightshade) [2]): 300 g/ha | inhibition at 10 g/ha (ABUTH (velvetleaf)): 0% | inhibition at 30 g/ha (ABUTH (velvetleaf)): 0% | inhibition at 100 g/ha (ABUTH (velvetleaf)): 0% | inhibition at 300 g/ha (ABUTH (velvetleaf)): 70% | inhibition at 900 g/ha (ABUTH (velvetleaf)): 90% | PPI activity (GR80) ABUTH (ABUTH (velvetleaf)): 100 g/ha | Pre-emergence activity (GR80) SETFA (SETFA (giant foxtail) [3]): 100 g/ha | inhibition at 10 g/ha (oilseed rape (BRSNS); 10 g/ha): 0% | inhibition at 30 g/ha (oilseed rape (BRSNS)): 0% | inhibition at 300 g/ha (oilseed rape (BRSNS)): 20% | inhibition at 900 g/ha (oilseed rape (BRSNS)): 100% | inhibition at 10 g/ha (BROTE (downy brome); Bromus tectorum, weed, PPI application, 10 g/ha, read-out: Percent inhibition BROTE): 0% | inhibition at 30 g/ha (BROTE (downy brome); [8]): 0% | inhibition at 100 g/ha (BROTE (downy brome); [8]): 0% | inhibition at 300 g/ha (BROTE (downy brome); [8]): 20% | inhibition at 900 g/ha (BROTE (downy brome); [8]): 90% | PPI activity GR80, BROTE (BROTE (downy brome)): 300 g/ha | Pre-emergence activity GR80, GALAP [4]: 300 g/ha | inhibition at 10 g/ha (SETFA (giant foxtail) [5]): 100% | inhibition at 30 g/ha (SETFA (giant foxtail) [5]): 90% | inhibition at 100 g/ha (SETFA (giant foxtail) [5]): 90% | inhibition at 300 g/ha (SETFA (giant foxtail) [5]): 100% | inhibition at 900 g/ha (SETFA (giant foxtail) [5]): 100% | PPI activity GR80, SETFA (SETFA (giant foxtail) [5]): 100 g/ha | Pre-emergence activity (GR80) CHEAL [6]: 300 g/ha | inhibition at 10 g/ha (SINAR (wild mustard); Brassica, weed, PPI application, 10 g/ha, read-out: Percent inhibition SINAR): 100% | inhibition at 30 g/ha (SINAR (wild mustard); [9]): 100% | inhibition at 100 g/ha (SINAR (wild mustard); [9]): 80% | inhibition at 300 g/ha (SINAR (wild mustard); [9]): 100% | inhibition at 900 g/ha (SINAR (wild mustard); [9]): 100% | PPI activity GR80, SINAR (SINAR (wild mustard)): 10 g/ha | Pre-emergence activity (GR80) SOLNI (SOLNI (black nightshade) [7]): 100 g/ha

CCN(CC)C(=O)n1cnc(S(=O)(=O)C(F)(F)Br)n1 [Example 1, 3-(bromodifluoromethylsulfonyl)-1-(N,N-diethylcarbamoyl)-1,2,4-triazole]
Pre-emergence activity GR80, LAMPU [1]: 30 g/ha | inhibition at 10 g/ha (SOLNI (black nightshade) [2]): 0% | inhibition at 30 g/ha (SOLNI (black nightshade) [2]): 0% | inhibition at 100 g/ha (SOLNI (black nightshade) [2]): 0% | inhibition at 300 g/ha (SOLNI (black nightshade) [2]): 75% | inhibition at 900 g/ha (SOLNI (black nightshade) [2]): 100% | PPI activity (GR80) SOLNI (SOLNI (black nightshade) [2]): 30 g/ha | inhibition at 10 g/ha (ABUTH (velvetleaf)): 0% | inhibition at 30 g/ha (ABUTH (velvetleaf)): 0% | inhibition at 100 g/ha (ABUTH (velvetleaf)): 0% | inhibition at 300 g/ha (ABUTH (velvetleaf)): 20% | inhibition at 900 g/ha (ABUTH (velvetleaf)): 80% | PPI activity (GR80) ABUTH (ABUTH (velvetleaf)): 100 g/ha | Pre-emergence activity (GR80) SETFA (SETFA (giant foxtail) [3]): 100 g/ha | inhibition at 10 g/ha (SETFA (giant foxtail) [3]; Setaria faberi, pre-emergence application, 10 g/ha, read-out: Percent inhibition, weed SETFA): 0% | inhibition at 30 g/ha (SETFA (giant foxtail) [3]; Setaria faberi, pre-emergence application, 30 g/ha, read-out: Percent inhibition, weed SETFA): 0% | inhibition at 100 g/ha (SETFA (giant foxtail) [3]; Setaria faberi, pre-emergence application, 100 g/ha, read-out: Percent inhibition, weed SETFA): 40% | inhibition at 300 g/ha (SETFA (giant foxtail) [3]; Setaria faberi, pre-emergence application, 300 g/ha, read-out: Percent inhibition, weed SETFA): 100% | inhibition at 900 g/ha (SETFA (giant foxtail) [3]; Setaria faberi, pre-emergence application, 900 g/ha, read-out: Percent inhibition, weed SETFA): 100% | inhibition at 30 g/ha (oilseed rape (BRSNS)): 60% | inhibition at 100 g/ha (oilseed rape (BRSNS); 100 g/ha): 20% | inhibition at 300 g/ha (oilseed rape (BRSNS)): 99% | inhibition at 900 g/ha (oilseed rape (BRSNS)): 100% | inhibition at 30 g/ha (BROTE (downy brome); [8]): 0% | inhibition at 100 g/ha (BROTE (downy brome); [8]): 20% | inhibition at 300 g/ha (BROTE (downy brome); [8]): 50% | inhibition at 900 g/ha (BROTE (downy brome); [8]): 100% | PPI activity GR80, BROTE (BROTE (downy brome)): 300 g/ha | Pre-emergence activity GR80, GALAP [4]: 100 g/ha | inhibition at 10 g/ha (SETFA (giant foxtail) [5]): 100% | inhibition at 30 g/ha (SETFA (giant foxtail) [5]): 70% | inhibition at 100 g/ha (SETFA (giant foxtail) [5]): 100% | inhibition at 300 g/ha (SETFA (giant foxtail) [5]): 100% | inhibition at 900 g/ha (SETFA (giant foxtail) [5]): 100% | PPI activity GR80, SETFA (SETFA (giant foxtail) [5]): 30 g/ha | Pre-emergence activity (GR80) CHEAL [6]: 300 g/ha | inhibition at 30 g/ha (SINAR (wild mustard); [9]): 100% | inhibition at 100 g/ha (SINAR (wild mustard); [9]): 100% | inhibition at 300 g/ha (SINAR (wild mustard); [9]): 100% | inhibition at 900 g/ha (SINAR (wild mustard); [9]): 100% | PPI activity GR80, SINAR (SINAR (wild mustard)): 100 g/ha | Pre-emergence activity (GR80) SOLNI (SOLNI (black nightshade) [7]): 100 g/ha | inhibition at 10 g/ha (SOLNI (black nightshade) [7]; Solanum nigrum, pre-emergence application, 10 g/ha, read-out: Percent inhibition, weed SOLNI): 0% | inhibition at 30 g/ha (SOLNI (black nightshade) [7]; Solanum nigrum, pre-emergence application, 30 g/ha, read-out: Percent inhibition, weed SOLNI): 0% | inhibition at 100 g/ha (SOLNI (black nightshade) [7]; Solanum nigrum, pre-emergence application, 100 g/ha, read-out: Percent inhibition, weed SOLNI): 0% | inhibition at 300 g/ha (SOLNI (black nightshade) [7]; Solanum nigrum, pre-emergence application, 300 g/ha, read-out: Percent inhibition, weed SOLNI): 0% | inhibition at 900 g/ha (SOLNI (black nightshade) [7]; Solanum nigrum, pre-emergence application, 900 g/ha, read-out: Percent inhibition, weed SOLNI): 20%
